{
  "source": "paper PMC7466159",
  "about": "“Anti-Metastasis Fascin Inhibitors Decrease the Growth of Specific Subtypes of Cancers” (Cancers, 2020)",
  "key": {"[1]": {"system": "MDA-MB-231 human triple-negative breast cancer cells", "settings": "for inhibition of lung metastasis / IC50, metastasized tumor cells in the lungs: NSG mice, oral; for IC50, metastasized tumor cells in the lungs: six days a week, eight weeks", "method": "We used two mouse models. In the first orthotopic spontaneous tumor metastasis mouse model, MDA-MB-231 human triple-negative breast cancer cells were injected into the orthotopic site (the mammary gland) of immuno-deficient NSG mice, and then the metastasis to the lung was monitored (Figure 2A–C). Seven days after the implantation of MDA-MB-231 tumor cells, we orally administered the mice with different concentrations of NP-G2-044 either once a day or twice a day for six days a week. After eight weeks, the mice were sacrificed and examined for metastasis in the lungs. […] Lung tumor metastasis was further verified by a histological analysis of lung sections and stained with hematoxylin and eosin (Figure 2C).\nMDA-MB-231 cells (subclone LM2) (1 × 10^5) suspended in PBS-matrigel (v/v, 1:1) were injected subcutaneously into the abdominal mammary gland area of female NSG mice (6- to 8-week old from the Jackson Lab) on day 0 as previously described. Starting on Day 7, NP-G2-044 or the control solvent was given once or twice a day for 6 days every week by gavage until the eighth week. On the first day of the ninth week, the mice were killed.\nThe numbers of metastatic MDA-MB-231 cells in lungs were determined by a clonogenic assay. The lungs were removed from each mouse once sacrificed, and the resulting cells were suspended and plated with a series of dilutions in 10-cm tissue culture dishes in medium containing 2.0 µg/mL puromycin for clonogenic growth. As these MBA-MB-231 tumor cells were stably transfected with the vector pSuper-puro, the metastasized tumor cells formed foci after 14 days, at which time they were fixed with 4% paraformaldehyde and stained with crystal violet staining solution for counting. For combination treatments with chemotherapy, MDA-MB-231 tumor cells (1 × 10^5) suspended in PBS-matrigel (v/v, 1:1) were injected subcutaneously into the abdominal mammary gland area of mice on Day 0. Starting on Day 0, 7, or 14, NP-G2-044 was given to mice once a day for 6 days every week by oral gavage at 300 mg/kg per mouse. A vehicle solvent was given to the control mice once a day for 6 days every week. Starting on day 14, doxorubicin hydrochloride (MilliporeSigma, St. Louis, MO, USA) (2 mg/kg) and cyclophosphamide monohydrate (MilliporeSigma) (60 mg/kg) were given to mice once a week for four weeks. Primary tumors were removed on day 28. The death of the mice was used as the endpoint."}, "[2]": {"test": "Plasma protein binding assay with mouse plasma", "format": "in vitro ADME", "settings": "in the presence of 100% serum"}, "Ly10 cells": {"system": "Ly10 cells", "test": "Soft-agar colony formation assay, Ly10", "format": "cell-based", "settings": "14 days, dosage-dependent", "method": "A total of 1 × or 2 ×10^4 cells were suspended in 0.5 mL of 0.3% low melting point agar (Merck KGaA, Darmstadt, Germany) in RPMI-1640 or DMEM containing 10% FBS and control solvent or the inhibitors. This suspension was overlaid on pre-solidified with 0.6% agar in the same medium in 24-well plates as previously described. Normal growth medium containing control solvent or the inhibitors was gently layered over the cultures every 4 days for 14 days. The colonies were stained with 0.1% crystal violet for 1 h at room temperature and counted under a microscope."}, "HT lymphoma cells": {"system": "HT lymphoma cells", "test": "HT lymphoma model in NSG mice (tumor growth, overall survival)", "format": "in vivo", "settings": "300 mg/kg gavage once a day 5 days every week from day 28, vs control", "method": "HT cells (5 × 10^6) suspended in PBS-matrigel (v/v, 1: 1) were subcutaneously injected into NSG mice on day 0. Starting on day 28, NP-G2-044 or the control solvent was given once a day for 5 days every week by gavage at 300 mg kg^−1 per mouse until their death."}, "U2932 lymphoma cells": {"system": "U2932 lymphoma cells", "test": "U2932 lymphoma model in NSG mice (tumor growth, liver metastasis, overall survival)", "format": "in vivo", "method": "For the lymphoma model, U2932 cells (5 × 10^6) suspended in PBS-matrigel (v/v, 1:1) were subcutaneously injected into NSG mice on Say 0. Starting on Day 49, NP-G2-044 was given once a day for 5 days every week by gavage at 300 mg kg^−1 per mouse until their death. Starting on Day 49, LY2409881 was given once weekly by intraperitoneal injection at 50 mg kg^−1 per mouse for 8 times. The control solvent was given according to their body weights until their death. […] The primary tumors and livers shown in the figure were dissected on Day 67."}, "[3]": {"system": "phosphorylation of PI3K, AKT, JNK, and STAT6", "test": "Western blotting of signaling pathways in U2932 cells", "format": "cell-based", "settings": "30 µM, 16 h", "method": "(§1) We treated U2932 cells with or without NP-G2-044, and measured the potential effects of NP-G2-044 on various pathways critical for lymphoma cell growth.\n(§2) The lymphoma cells were plated in 10-cm dish. After culture for 24 h, cells were incubated in serum-free medium for 16 h. Cells were then incubated in growth medium with 30 µM NP-G2-044 or dissolvent for 16 h, followed by collecting whole cell lysates or nuclear extracts as previously described."}, "[4]": {"system": "NF-κB nuclear translocation in U2932 cells", "test": "p65 (NF-κB) nuclear translocation, Western blotting, U2932", "format": "cell-based", "settings": "30 µM, 16 h", "method": "as §1, §2"}, "[5]": {"system": "NF-κB nuclear translocation in Ly10 cells", "test": "p65 (NF-κB) nuclear translocation, Western blotting, Ly10", "format": "cell-based", "settings": "30 µM, 16 h"}, "[6]": {"system": "MDA-MB-468 triple-negative breast cancer cells", "test": "Cell growth assay, MDA-MB-468", "format": "cell-based", "settings": "MDA-MB-468 cells in culture, 10% serum"}, "[7]": {"system": "BT-20 triple-negative breast cancer cells", "test": "Cell growth assay, BT-20", "format": "cell-based", "settings": "BT-20 cells in culture, 10% serum"}, "[8]": {"system": "HCC38 triple-negative breast cancer cells", "test": "Cell growth assay, HCC38", "format": "cell-based", "settings": "HCC38 cells in culture, 10% serum"}, "[9]": {"test": "Stability in plasma samples during bioanalysis", "format": "physicochemical", "settings": "after freeze-thaw, and during storage, processing and analysis", "description": "The concentrations of NP-G2-044 in plasma were determined using high performance liquid chromatography with tandem mass spectrometry (LC-MS/MS). All blood samples were transferred into a commercial tube containing potassium (K2) EDTA (ethylene diaminetetraacetic acid) and were processed for plasma. Samples were centrifuged (3000× g for 10 min at 2 to 8 °C) within one hour of collection. The assays used a Sciex API 4000 detector and nifedipine as an internal standard. The calibration ranges for NP-G2-044 were from 5.00 to 5000 ng/mL."}, "[10]": {"system": "NCI-H660 human neuroendocrine prostate cancer cells", "description": "To investigate the effect of NP-G2-044 on the overall survival of mice bearing NCI-H660 tumors, NCI-H660 tumor cells were injected into the prostate of male NSG mice. NCI-H660 tumor-bearing mice were randomized into two groups. In the control group, the vehicle solvent was given (marked as the “control” group) (Figure 3F). In the second group, the mice were treated with NP-G2-044 (5 days per week by an oral gavage). NP-G2-044 treatment started on Day 7.\nHuman neuroendocrine prostate cancer NCI-H660 cells (1 × 10^5) suspended in PBS were injected into the prostate of male NSG mice (6- to 8-week old from the Jackson Lab) on day 0 as previously described [56]. Briefly, the abdomen was cleaned with iodine solution, and a 1-cm midline incision was created to expose the prostate gland. A 29-gauge needle and a 1-mL disposable syringe were used for the injection of the cell suspension. The needle was inserted into the middle portion of the right anterior lobe, and then was directed towards the cranial portion of the lobe. The abdominal wound was closed in 2 layers with surgical sutures. Starting on Day 7, NP-G2-044 or the control solvent was given once a day for 5 days a week by oral gavage. […] The death of the mice was used as the endpoint."}, "[11]": {"system": "MDA-MB-231 triple-negative breast cancer cells", "set-up": "method as in PMID 26081695, PMID 27071719", "settings": "MDA-MB-231 cells; cited from earlier work"}, "HT cells": {"system": "HT cells", "test": "Cell growth assay, HT", "settings": "HT cells in culture, 4 days", "description": "We then extended our search to other types of lymphoma cells. […] Both U2932 and Ly10 cells are ABC-subtype DLBCLs, and HT cells are diffuse mixed lymphoma.\nFor NP-G2-044 dose-dependent studies, 1 × 10^5 Ly10, U2932, or HT cells were seeded in a 12- or 24-well plate on day 0. A total of 1, 3, 10, 30, or 100 μM NP-G2-044 or control solvent was added to the plates. Cells were collected and counted on day 4. For time-dependent studies, 1 × 10^5 Ly10, U2932, or HT cells were seeded in a 12- or 24-well plate on day 0. A total of 30 μM NP-G2-044, 5 μM LY2409881, 30 μM NP-G2-044 plus 5 μM LY2409881, or control solvent was added to the plates. Cells were collected and counted on Days 2 and 4. […] The cell growth index was expressed as the fold changes of cell numbers over the starting cell number. For these assays, the old medium was changed with a fresh medium containing the control solvent or the inhibitors every two days."}, "[12]": {"test": "Pharmacokinetic study after single IV and oral gavage dose, plasma by LC-MS/MS", "settings": "mice", "description": "The PK parameters of NP-G2-044 were assessed following a single intravenous (IV) and single oral (PO) gavage dose administration to mice. Blood samples were collected pre-dose, and 3, 10, 30 min, 1, 1.5, 3, 6, 9, 24, 32, or 48 h after dosing. The plasma samples were then extracted and the concentrations of NP-G2-044 were determined by LC-MS/MS.\nThe concentrations of NP-G2-044 in plasma were determined using high performance liquid chromatography with tandem mass spectrometry (LC-MS/MS). All blood samples were transferred into a commercial tube containing potassium (K2) EDTA (ethylene diaminetetraacetic acid) and were processed for plasma. Samples were centrifuged (3000× g for 10 min at 2 to 8 °C) within one hour of collection. The assays used a Sciex API 4000 detector and nifedipine as an internal standard. The calibration ranges for NP-G2-044 were from 5.00 to 5000 ng/mL. The plasma concentration of NP-G2-044 in mice was subjected to a non-compartmental pharmacokinetic analysis by using the Phoenix WinNonlin software (version 6.3, Pharsight, Mountain View, CA, USA). The nominal dose levels and nominal sampling times were used in the calculation of all pharmacokinetic parameters. The linear/log trapezoidal rule was applied in obtaining the PK parameters."}, "[13]": {"settings": "treatment from Day 49, vs control group"}},
  "note": "Where two headings read alike, the source gives them in different places.",
  "data": [
    {"smiles": "Cc1occc1C(=O)Nc1nn(Cc2ccc(C(F)(F)F)cc2)c2ccccc12", "note": "[NP-G2-044]", "values": [
      {"measurement": "inhibition of lung metastasis", "setting": "[1]; 100 mg/kg twice a day", "result": "almost completely inhibition"},
      {"measurement": "inhibition of lung metastasis", "setting": "[1]; 300 mg/kg once a day", "result": "almost complete inhibition"},
      {"measurement": "IC50, metastasized tumor cells in the lungs", "setting": "[1]; once a day", "result": 78.7, "unit": "mg/kg"},
      {"measurement": "IC50, metastasized tumor cells in the lungs", "setting": "[1]; twice a day", "result": 29.2, "unit": "mg/kg"},
      {"measurement": "tolerability of dosage regimen", "setting": "[1]; mouse, in vivo", "result": "well tolerated with no signs of overt toxicity"},
      {"measurement": "fraction unbound", "setting": "[2]", "result": "~0.003"},
      {"measurement": "number of growing colonies", "setting": "Ly10 cells", "result": "decreased the number of growing colonies"},
      {"measurement": "primary tumor growth", "setting": "HT lymphoma cells", "result": "decreased"},
      {"measurement": "overall survival", "setting": "HT lymphoma cells; logrank p = 0.002", "result": "increased"},
      {"measurement": "metastasis of implanted lymphoma cells to the liver", "setting": "U2932 lymphoma cells; livers dissected on Day 67", "result": "blocked the metastasis to the liver"},
      {"measurement": "increase of median overall survival", "setting": "U2932 lymphoma cells; [13]", "result": 79, "unit": "%"},
      {"measurement": "overall survival", "setting": "U2932 lymphoma cells; [13]", "result": "increased"},
      {"measurement": "primary tumor growth", "setting": "U2932 lymphoma cells; [13]", "result": "decreased"},
      {"measurement": "phosphorylation of PI3K, AKT kinase, JNK kinase, and STAT6 transcription factor", "setting": "[3]", "result": "no effect"},
      {"measurement": "nuclear translocation of the p65 subunits", "setting": "[4]", "result": "decreased"},
      {"measurement": "nuclear translocation of the p65 subunits", "setting": "[5]", "result": "also observed"},
      {"measurement": "growth sensitivity", "setting": "[6]", "result": "sensitive"},
      {"measurement": "growth sensitivity", "setting": "[7]", "result": "sensitive"},
      {"measurement": "growth sensitivity", "setting": "[8]", "result": "sensitive"},
      {"measurement": "stability", "setting": "[9]", "result": "stable"},
      {"measurement": "increase of median overall survival", "setting": "[10]; male NSG mice, oral gavage 5 days per week from Day 7, compared with control group, log-rank p < 0.001", "result": 50, "unit": "%"},
      {"measurement": "tolerability of dosage regimen", "setting": "[10]; mouse, in vivo, po", "result": "well tolerated with no signs of overt toxicity"},
      {"measurement": "induction of apoptosis", "setting": "[11]", "result": "did not induce the apoptosis"},
      {"measurement": "effect on cell growth", "setting": "HT cells", "result": "inhibitory effect"},
      {"measurement": "Vd", "setting": "[12]; IV, 20 mg/kg", "result": "9.32 ± 1.35", "unit": "L/kg"},
      {"measurement": "oral bioavailability (based on AUC0–t)", "setting": "[12]; oral 20 to 100 mg/kg", "result": "34–39%"}
    ]}
  ]
}
